From patent US7915237B2, “Production of pure stereoisomers of tricyclo[5.2.1.02.6]-dec-9-yl-xanthogenate and medicaments therefrom” (Lumavita AG, priority 2001, dated 2011)

Tests used:
[1] = tested on: Herpes simplex virus 1; test: Inhibition of Herpes proliferation by measuring the cytopathogenic effect; type: cell-based, Herpes simplex virus 1 in monkey kidney cells (Rita strain); conditions: 50 PFU HSV-1, pH 6.8, microscopy after 6 days
Protocol: The inhibition of the proliferation of Herpes by exo/exo-tricyclo[5.2.1.0^2.6]dec-9-yl-xanthogenate was determined by measuring the cytopathogenic effect. For this purpose, monkey kidneys cells (Rita strain) were seeded on Linbro plates. After 24 hours, 50 plaque-forming units of Herpes simplex virus 1 were added to each culture. After allowing for adsorption for one hour, fresh culture medium adjusted to pH 6.8 was added. Four cultures each were treated either with the pure exo/exo isomer or a mixture of isomers containing 83% of the exo/exo isomer using the following concentrations: 0, 5, 10, 15 or 20 μg/ml. The cultures were analyzed by microscopy after 6 days. Untreated cultures were completely lysed as a result of virus proliferation (cytopathogenic effect).

[2] = tested on: Herpes simplex virus 1; test: Inhibition of Herpes proliferation by measuring viral proliferation (plaque assay of supernatants); type: cell-based, Herpes simplex virus 1 in monkey kidney cells (Rita strain)
Protocol: The inhibition of the proliferation of Herpes by exo/exotricyclo[5.2.1.0^2.6]dec-9-yl-xanthogenate was determined by measuring viral proliferation. For this purpose, monkey kidneys cells (Rita strain) were seeded on Linbro plates. After 24 hours, 100 plaque-forming units of Herpes simplex virus 1 were added to each culture. After allowing for adsorption for one hour, fresh culture medium adjusted to pH 6.8 was added. Four cultures each were treated either with the pure exo/exo isomer or a mixture of isomers containing 83% of the exo/exo isomer using the following concentrations: 0, 5, 10 or 15 μg/ml. The virus concentrations in the supernatants of the cultures were determined after four days by means of plaque assays. The curves were used to determine the concentration at which viral proliferation was inhibited by 50% (IC50). An IC50 of 0.6 μg/ml was found for the exo/exo isomer. […] This means that the pure exo/exo isomer effected a 50% reduction of viral proliferation at a more than 10-fold lower concentration as compared to the mixture of isomers.

S=C(S)OC1CC2CC1C1CCCC21 (single isomer, unassigned) [exo/exo isomer, exo/exo-tricyclo[5.2.1.0^2.6]dec-9-yl-xanthogenate]
cytopathogenic effect in treated cultures ([1]; 5, 10, 15 or 20 μg/ml): no evidence of a cytopathogenic effect
concentration at which proliferation of the virus was completely suppressed (no cytopathogenic effect) ([1]; tested 5-20 μg/ml): ≤ 5 µg/mL
concentration at which viral proliferation was inhibited by 50% (IC50) ([2]; 100 PFU HSV-1, pH 6.8, virus in supernatant after four days, from dose-response curve): 0.6 µg/mL
fold lower concentration for 50% reduction of viral proliferation as compared to the mixture of isomers ([2]; IC50 ratio versus mixture containing 83% exo/exo isomer): more than 10 fold
fold stronger antiviral effect than the mixture of isomers ([2]; summary statement, versus mixture of 83% exo/exo and 17% other isomers): 4-10 fold
